Drawing on patent US10428080B2, “TBK/IKK inhibitor compounds and uses thereof” (Merck Patent GmbH, priority 2015, dated 2019), this text covers IC50 for 19 molecules.

Where a name gives a salt, the structure may show the parent alone.

The target in one experiment is T1, TBK1 (Homo sapiens, UniProt Q9UHD2).
T1 sequence (Q9UHD2 1-729): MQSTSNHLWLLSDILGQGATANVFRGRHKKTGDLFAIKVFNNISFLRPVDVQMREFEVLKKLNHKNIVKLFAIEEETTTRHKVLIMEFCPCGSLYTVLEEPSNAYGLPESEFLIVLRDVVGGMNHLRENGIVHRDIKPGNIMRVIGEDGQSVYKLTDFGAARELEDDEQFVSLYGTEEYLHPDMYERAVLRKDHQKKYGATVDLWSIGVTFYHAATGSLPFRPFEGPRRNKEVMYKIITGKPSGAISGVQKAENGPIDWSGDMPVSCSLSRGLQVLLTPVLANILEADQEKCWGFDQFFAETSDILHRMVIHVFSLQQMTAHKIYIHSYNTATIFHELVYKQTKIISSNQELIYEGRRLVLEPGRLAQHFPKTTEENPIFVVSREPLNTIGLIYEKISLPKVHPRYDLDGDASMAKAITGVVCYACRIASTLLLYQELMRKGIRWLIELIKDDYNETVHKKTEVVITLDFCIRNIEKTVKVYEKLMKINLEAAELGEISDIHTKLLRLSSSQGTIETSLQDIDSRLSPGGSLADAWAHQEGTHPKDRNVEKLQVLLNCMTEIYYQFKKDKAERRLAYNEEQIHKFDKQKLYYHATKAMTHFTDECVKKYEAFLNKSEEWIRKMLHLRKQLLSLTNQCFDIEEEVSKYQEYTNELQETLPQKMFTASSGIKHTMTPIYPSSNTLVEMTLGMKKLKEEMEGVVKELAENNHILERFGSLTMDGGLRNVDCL
As to the kind of experiment: TBK Biochemical Assay. The note with it: read-out: TBK1 IC50. In a few lines:
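TBK1 enzyme and substrate incubated with compounds (10-point 1:4 dilution, top 30 uM final, 1% DMSO) for 90 min at 25° C, then stopped. Substrate/product peaks read by microfluidic mobility-shift (Caliper LabChip); 10 uM staurosporine as full-inhibition control.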

Another experiment has as its target T2, IKKε (Homo sapiens, UniProt Q14164).
T2 sequence (Q14164 1-716): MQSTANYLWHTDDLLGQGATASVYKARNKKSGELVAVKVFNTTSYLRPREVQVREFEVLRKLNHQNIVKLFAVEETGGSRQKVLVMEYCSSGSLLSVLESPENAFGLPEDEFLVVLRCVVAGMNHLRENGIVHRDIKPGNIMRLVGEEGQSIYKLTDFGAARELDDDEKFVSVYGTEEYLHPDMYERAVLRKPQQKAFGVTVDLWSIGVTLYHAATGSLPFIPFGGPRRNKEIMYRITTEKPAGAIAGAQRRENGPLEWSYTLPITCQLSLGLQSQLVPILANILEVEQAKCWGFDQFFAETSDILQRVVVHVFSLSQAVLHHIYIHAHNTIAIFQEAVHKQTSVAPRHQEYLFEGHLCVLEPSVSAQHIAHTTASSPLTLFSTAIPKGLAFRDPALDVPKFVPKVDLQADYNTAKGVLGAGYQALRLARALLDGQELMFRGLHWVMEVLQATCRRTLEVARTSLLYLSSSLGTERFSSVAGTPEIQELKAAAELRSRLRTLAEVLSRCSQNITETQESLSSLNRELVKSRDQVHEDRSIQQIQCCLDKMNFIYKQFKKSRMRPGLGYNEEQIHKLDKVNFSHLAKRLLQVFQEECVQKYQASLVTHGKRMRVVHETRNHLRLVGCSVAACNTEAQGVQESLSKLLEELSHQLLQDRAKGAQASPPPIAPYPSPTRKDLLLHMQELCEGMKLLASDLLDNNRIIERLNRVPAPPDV
Description: IKKe Biochemical Assay. As to conditions: read-out: IKKε IC50. In a few lines: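 Recombinant IKKε and substrate were incubated with compound (10-point 1:4 series, top 30 uM final, 1% DMSO) for 90 min at 25° C, then stopped. Substrate-to-product conversion was read by LabChip microfluidic mobility shift; 10 uM staurosporine served as full-inhibition wells.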

What is called IC50 is the concentration that gives 50% inhibition. `COc1cc(C(=O)N(C)C)cnc1-c1cc2nccc(-c3ccc(OC4CCOCC4)c(C#N)c3)c2o1` [Compound 274, 6-(7-(3-cyano-4-(tetrahydro-2H-pyran-4-yloxy)phenyl)furo[3,2-b]pyridin-2-yl)-5-methoxy-N,N-dimethylnicotinamide hydrochloride]: the concentration for half-maximal inhibition (IC50) on TBK1 and at IKKε was less than 100 nM each time.

Take `CN(C)C(=O)c1ccc(-c2cc3nccc(-c4ccc(C5(N6CCOCC6)CC5)c(C#N)c4)c3o2)cc1` [Compound 287, 4-(7-[3-cyano-4-[1-(morpholin-4-yl)cyclopropyl]phenyl]furo[3,2-b]pyridin-2-yl)-N,N-dimethylbenzamide hydrochloride]: the 50% inhibitory concentration (IC50) on TBK1 and on IKKε was more than 5000 nM in each case.

Consider `COc1cc(C(=O)N(C)CCO)ccc1-c1cc2ncc(C3CC3)c(-c3ccc(NC4CCOCC4)c(C#N)c3)c2o1` [Compound 305, 4-(7-[3-cyano-4-[(oxan-4-yl)amino]phenyl]-6-cyclopropylfuro[3,2-b]pyridin-2-yl)-N-(2-hydroxyethyl)-3-methoxy-N-methylbenzamide], for which the IC50 on TBK1 and at IKKε was more than 5000 nM in each case.

For the molecule `COc1cc(C(=O)N(C)CCO)ccc1-c1cc2ncc(C3CC3)c(-c3ccc(OC4CCOCC4)c(C#N)c3)c2o1` [Compound 306, 4-(7-(3-cyano-4-(tetrahydro-2H-pyran-4-yloxy)phenyl)-6-cyclopropylfuro[3,2-b]pyridin-2-yl)-N-(2-hydroxyethyl)-3-methoxy-N-methylbenzamide], the IC50 on TBK1 and on IKKε was more than 5000 nM each time.

Turning to `COc1cc(C(=O)N(C)C)ccc1-c1cc2nccc(-c3cc(C#N)c(OC4CCOCC4)c(C4CC4)c3)c2o1` [Compound 307, 4-(7-(3-cyano-5-cyclopropyl-4-(tetrahydro-2H-pyran-4-yloxy)phenyl)furo[3,2-b]pyridin-2-yl)-3-methoxy-N,N-dimethylbenzamide], the IC50 on TBK1 and on IKKε was 100 to 1000 nM each time.

As for `COc1cc(C(=O)N(C)C)ccc1-c1cc2nccc(-c3cc(C#N)c(NC4CCOCC4)c(C4CC4)c3)c2o1` [Compound 308, 4-(7-(3-cyano-5-cyclopropyl-4-(tetrahydro-2H-pyran-4-ylamino)phenyl)furo[3,2-b]pyridin-2-yl)-3-methoxy-N,N-dimethylbenzamide], the IC50 on TBK1 and at IKKε was more than 5000 nM in each case.

With `COc1cc(C(=O)N(C)C)cnc1-c1cc2ncc(C)c(-c3ccc(NC4CCOCC4)c(C#N)c3)c2o1` [Compound 319, 6-(7-(3-cyano-4-(tetrahydro-2H-pyran-4-ylamino)phenyl)-6-methylfuro[3,2-b]pyridin-2-yl)-5-methoxy-N,N-dimethylnicotinamide], the IC50 on TBK1 and at IKKε was 1000 to 5000 nM throughout.

For the molecule `COc1cc(C(=O)N(C)C)cnc1-c1cc2ncc(C)c(-c3ccc(OC4CCOCC4)c(C#N)c3)c2o1` [Compound 320, 6-(7-(3-cyano-4-(tetrahydro-2H-pyran-4-yloxy)phenyl)-6-methylfuro[3,2-b]pyridin-2-yl)-5-methoxy-N,N-dimethylnicotinamide], the IC50 at TBK1 and on IKKε was 1000 to 5000 nM each time.

In the case of `COc1cc(C(=O)N(C)C)cnc1-c1cc2ncc(C)c(-c3ccc(OC4CCOCC4)c(C#N)n3)c2o1` [Compound 321, 6-[7-[6-cyano-5-(oxan-4-yloxy)pyridin-2-yl]-6-methylfuro[3,2-b]pyridin-2-yl]-5-methoxy-N,N-dimethylpyridine-3-carboxamide hydrochloride], the IC50 at TBK1 and at IKKε was 100 to 1000 nM throughout.

As for `COc1cc(C(=O)N(C)C)cnc1-c1cc2ncc(C3CC3)c(-c3ccc(OC4CCOCC4)c(C#N)c3)c2o1` [Compound 323, 6-(7-(3-cyano-4-(tetrahydro-2H-pyran-4-yloxy)phenyl)-6-cyclopropylfuro[3,2-b]pyridin-2-yl)-5-methoxy-N,N-dimethylnicotinamide], the IC50 on TBK1 and at IKKε was more than 5000 nM each time.

As to `COc1cc(C(=O)N(C)CCO)cnc1-c1cc2ncc(C)c(-c3ccc(OC4CCOCC4)c(C#N)c3)c2o1` [Compound 330, 6-(7-(3-cyano-4-(tetrahydro-2H-pyran-4-yloxy)phenyl)-6-methylfuro[3,2-b]pyridin-2-yl)-N-(2-hydroxyethyl)-5-methoxy-N-methylnicotinamide], the IC50 on TBK1 and at IKKε was 1000 to 5000 nM throughout.

Take `COc1cc(C(=O)N(C)CCO)cnc1-c1cc2ncc(C(C)C)c(-c3ccc(OC4CCOCC4)c(C#N)c3)c2o1` [Compound 333, 6-[7-[3-cyano-4-(oxan-4-yloxy)phenyl]-6-(propan-2-yl)furo[3,2-b]pyridin-2-yl]-N-(2-hydroxyethyl)-5-methoxy-N-methylpyridine-3-carboxamide]: the IC50 on TBK1 and at IKKε was more than 5000 nM in each case.

Take `COc1cc(C(=O)N(C)C)cnc1-c1cc2ncc(Cl)c(-c3ccc(OC4CCOCC4)c(C#N)c3)c2o1` [Compound 336, 6-[6-chloro-7-[3-cyano-4-(oxan-4-yloxy)phenyl]furo[3,2-b]pyridin-2-yl]-5-methoxy-N,N-dimethylpyridine-3-carboxamide hydrochloride]: the IC50 at TBK1 and on IKKε was 1000 to 5000 nM in each case.

Consider `COc1cc(C(=O)N(C)C)cnc1-c1cc2ncc(OC)c(-c3ccc(NC4CCOCC4)c(C#N)c3)c2o1` [Compound 340, 6-(7-[3-cyano-4-[(oxan-4-yl)amino]phenyl]-6-methoxyfuro[3,2-b]pyridin-2-yl)-5-methoxy-N,N-dimethylpyridine-3-carboxamide], for which the results for the IC50 at TBK1 and at IKKε were 100 to 1000 nM and 1000 to 5000 nM, respectively.

Consider `COc1cc(C(=O)N(C)CCO)cnc1-c1cc2ncc(C3CC3)c(-c3ccc(OC4CCOCC4)c(C#N)c3)c2o1` [Compound 341, 6-[7-[3-cyano-4-(oxan-4-yloxy)phenyl]-6-cyclopropylfuro[3,2-b]pyridin-2-yl]-N-(2-hydroxyethyl)-5-methoxy-N-methylpyridine-3-carboxamide hydrochloride], for which the IC50 on TBK1 and at IKKε was more than 5000 nM throughout.

Regarding `COc1cc(C(=O)N(C)CCO)cnc1-c1cc2ncc(Cl)c(-c3ccc(OC4CCOCC4)c(C#N)c3)c2o1` [Compound 342, 6-[6-chloro-7-[3-cyano-4-(oxan-4-yloxy)phenyl]furo[3,2-b]pyridin-2-yl]-N-(2-hydroxyethyl)-5-methoxy-N-methylpyridine-3-carboxamide hydrochloride], the IC50 on TBK1 and at IKKε was 1000 to 5000 nM in each case.

For the molecule `COc1cc(C(=O)N(C)CCO)cnc1-c1cc2ncc(OC)c(-c3ccc(OC4CCOCC4)c(C#N)c3)c2o1` [Compound 343, 6-[7-[3-cyano-4-(oxan-4-yloxy)phenyl]-6-methoxyfuro[3,2-b]pyridin-2-yl]-N-(2-hydroxyethyl)-5-methoxy-N-methylpyridine-3-carboxamide], the IC50 on TBK1 and on IKKε was 100 to 1000 nM each time.

For the molecule `COc1cc(C(=O)N(C)C)cnc1-c1cc2ncc(F)c(-c3ccc(OC4CCOCC4)c(C#N)n3)c2o1` [Compound 351, 6-[7-[6-cyano-5-(oxan-4-yloxy)pyridin-2-yl]-6-fluorofuro[3,2-b]pyridin-2-yl]-5-methoxy-N,N-dimethylpyridine-3-carboxamide hydrochloride], the IC50 on TBK1 and at IKKε was 100 to 1000 nM throughout.

On to `COc1cc(C(=O)N(C)CCO)cnc1-c1cc2ncc(F)c(-c3ccc(OC4CCOCC4)c(C#N)n3)c2o1` [Compound 354, 6-[7-[6-cyano-5-(oxan-4-yloxy)pyridin-2-yl]-6-fluorofuro[3,2-b]pyridin-2-yl]-N-(2-hydroxyethyl)-5-methoxy-N-methylpyridine-3-carboxamide hydrochloride], for which the values for the IC50 at TBK1 and at IKKε were 100 to 1000 nM and 1000 to 5000 nM, respectively.
